Measurements reported in US4419364A, “Bronchospasmolytic carbamate derivatives” (priority 1980, dated 1983).
“And” between values parts separate entries of the source, which are not always exact repeats. Equal values may be shown once. “Also recorded” adds a separate entry of the source. Where a name gives a salt, the structure may show the parent alone. Read-outs that look alike come from different tables or passages of the source.

Assays:
[1] = Duration of serum levels of terbutaline after oral administration of test compounds to unanaesthetized dogs; type: in vivo, dogs (Beagle, male); conditions: for concentration at 1 h: 1 hour after administration; for concentration at 2 h: 2 hours after administration; for concentration at 3 h: 3 hours after administration; for concentration at 4 h: 4 hours after administration; for concentration at 6 h: 6 hours after administration
Method: (§1) Five dogs (Beagle, .male., 13-18 kg) have been used repeatedly in the study. Each dog was used at most once a week. Food was withheld from the animals the night before the experiment (water ad libitum). The test compound was dissolved in 8 ml of distilled water, and delivered into the back of the mouth by use of a syringe and a short tube. This oral supply was followed by a water rinse of 8 ml.
(§2) The blood was collected from the cephalic veins in the forelegs by use of evacuated tubes. The esterase inhibitor diisopropylfluophoshate (DFP) was added, the samples centrifugated (+5°) and the amount of terbutaline in plasma determined by a massfragmentographic analysis method. The serum level of terbutaline indicates the degree of bronchospasmolytic effect of the test compounds.
(§3) The amounts of the test substances to be administered were selected so that the level of terbutaline corresponds to the serum levels obtained and found effective in patients at clinical use, that is a level of terbutaline of at least 2 ng/ml serum for 6 to 8 hours. The doses of the test substances of the invention were selected so that the serum levels of terbutaline obtained would correspond approximately with the serum levels obtained after administration of terbutaline per se.
The test results are given in Table 1 below, where the time course of the serum level of terbutaline in the test animals is given. Each set of serum levels is the result of test in one dog. The boxed time interval represents the interval where a clinically effective serum level of terbutaline is obtained. Thus, the boxed interval represents the clinically useful duration of the test compounds.

[2] = In vitro test on isolated guinea-pig auricles (chronotropic and inotropic effect); design: species or system guinea-pig (Dunkin Hartley, male); conditions: guinea pig, isolated auricles; relative values; eserine 1·10^-6 mol/l; read-out: Chronotropic effect on isolated auricle (relative values)
Method: (§4) Male guinea-pigs strain Dunkin Hartley (400-500 g) were used. After bleeding and removal of the heart the auricles were dissected free from the ventricular part and submerged into carbogen aerated Krebs solution of 37°. The frequency and force of the spontaneously beating preparation was recorded by a Grass transducer FT03. In the polygraph (Grass 7D) the signals from the isometric transducer passed a trigger function from the drive amplifier to the tachograph to record the rate.
(§5) The esterase inhibitor eserine was added to a concentration of 1·10^-6 mol/l in the organ bath before the drugs to be tested were added. The intrinsic activity of the test compounds on the heart preparation, that is their effect on heart rate (chronotropic effect) and their effect on the force of the heart beats (inotropic effect), and their possible interaction with terbutaline was studied.

[3] = test system: isolated auricles from guinea-pig heart; assay: as above; design: species or system guinea-pig (Dunkin Hartley, male)
Method: as §4, §5

[4] = test system: isolated tracheal muscle from guinea-pig; assay: In vitro test on isolated guinea-pig trachea (relaxation of pilocarpine-contracted trachea); conditions: for EC50: Cavia porcellus, pilocarpine-contracted, eserine 1·10^-6 mol/l, read-out: Concentration of test substance producing 50% relaxation of the trachea (EC50)
Method: The trachea from guinea-pigs was dissected out, cut spirally and transferred to a 10 ml organ bath containing Krebs solution of 37° and aerated with carbogen. The tracheal strip was contracted by pilocarpine (4·10^-6 mol/l) producing a tension of about 1.5 g. Isometric recording was made by use of a transducer FT03 and Grass polygraph 7D. Before the administration of the test compound the esterase inhibitor eserin was added to the bath in a concentration of 1·10^-6 mol/l. The concentration of the test substances which produces 50% relaxation (EC50) of the pilocarpine contracted trachea was recorded as well as potentiating or inhibiting influence of the test substances of the invention on the relaxing effect of terbutaline. In this last mentioned test the muscle preparation was pretreated with the test compounds during 5 minutes, before the response of terbutaline was recorded.

[5] = cited from earlier work; for Duration of bronchospasmolytic activity, in words: relative to a marketed comparator
heart rate in dogs = assay: In vivo test on the effect on the heart rate in dogs; design: species or system dogs (Beagle, male); conditions: oral; for Slope of the line of increase in heart rate vs. logarithm of corresponding serum conc.: serum conc. of terbutaline; for Slope of the line of increase in heart rate vs. logarithm of corresponding serum conc. / Correlation coefficient (increase in heart rate vs. logarithm of serum conc.): terbutaline 0.01-0.1 mg/kg, test compound 0.3-3 mg/kg
Method: as §1, with “solved” for “dissolved”
as §2, with “diisopropylfluophosphate” for “diisopropylfluophoshate”
as §3, with “level of terbutaline, when administered per se, corresponds to” for “level of terbutaline corresponds to”
The heart rate was determined by a stethoscope (the mean of three determinations during a 5-minute periode) before the administration of drug and before each blood sampling.
The relative effect of the test compounds on the heart rate of the test animals was illustrated by plotting in a diagram the increase in heart rate measured at a certain serum concentration of terbutaline versus the logarithm of the said terbutaline concentration in serum. Only values before and up to the maximal increase in heart rate were used. This method will produce a graph consisting of a substantially straight line. When such a line is drawn from each test compound, it can be seen from the slope of the line how the heart rate is correlated to the serum concentration of the test compound.

[6] = test system: histamine-induced bronchospasm in unanaesthetized guinea-pigs; assay: Protecting effect against histamine-induced bronchospasm after oral administration in guinea-pigs; type: in vivo, guinea-pigs (Dunkin-Hartley, male); conditions: for ED50: Cavia porcellus, 0.05 h, histamine aerosol, read-out: Dose protecting 50% of the test animals for more than 3 minutes (ED50)
Method: Male guinea-pigs, Dunkin-Hartley strain, 150-200 g, were used in the study. The animals were starved for about 15 hours (water ad libitum) before the administration, by a stomach tube, of test compound or vehicle (controls). To establish an adequate time period between administration and histamine exposure, the maximum plasma level of terbutaline produced from the hydrolysis of the given pro-drugs of terbutaline was determined. Thus, blood samples (in pre-experimental series) were collected from guinea-pigs at different times after the administration of the test compound and the plasma level of tarbutaline was determined by a massfragmentographic analysis. A peak in the plasma turbutaline was noted 50-60 minutes after the administration, and this time was selected as time for start of histamine exposure.
The histamine aerosol was generated by Bird inline nebulizers from a solution containing 0.02% histamine-HCl and 3% glycerole. The protecting effect was estimated from the delay in appearance of signs of anoxia in drug-treated animals. […] Drug-treated guinea-pigs without any signs of respiratory influence from the histamine during these first 3 minutes were denoted as protected.

[7] = dog, serum, po, 0.03 mg/kg, read-out: Serum level of terbutaline
[8] = dog, serum, po, 0.1 mg/kg, read-out: Serum level of terbutaline

Question: Which results are given for `CC(C)(C)NCC(O)c1cc(O)cc(O)c1` (stereo not shown) [terbutaline, 1-(3',5'-dihydroxyphenyl)-2-t-butylaminoethanol sulphate]?
Answer: concentration at 1 h [1, 7]: 4.8 ng/mL; concentration at 2 h [1, 7]: 2.9 ng/mL; concentration at 3 h [1, 7]: 2.4 ng/mL; concentration at 4 h [1, 7]: 2.2 ng/mL; concentration at 6 h [1, 7]: 1.9 ng/mL; concentration at 1 h [1, 8]: 5.7 ng/mL; concentration at 2 h [1, 8]: 13.7 ng/mL; concentration at 3 h [1, 8]: 9.2 ng/mL; concentration at 4 h [1, 8]: 6.1 ng/mL; concentration at 6 h [1, 8]: 3.4 ng/mL; concentration at 8 h ([1]; dog, serum, po, 0.1 mg/kg, 8 hours after administration, read-out: Serum level of terbutaline): 2.2 ng/mL; concentration at 12 h ([1]; dog, serum, po, 0.1 mg/kg, 12 hours after administration, read-out: Serum level of terbutaline): 1.1 ng/mL; concentration at 16 h ([1]; dog, serum, po, 0.1 mg/kg, 16 hours after administration, read-out: Serum level of terbutaline): 0.8 ng/mL; concentration at 24 h ([1]; dog, serum, po, 0.1 mg/kg, 24 hours after administration, read-out: Serum level of terbutaline): 0.35 ng/mL; Emax [2]: 100%; Inotropic effect on isolated auricle (relative values) ([3]; relative values, eserine 1·10^-6 mol/l): 1.0; EC50 [4]: 210 ± 50 nM; Serum concentration of terbutaline necessary for desired therapeutic activity ([5]; Hornblad et al. (1976)): at least 2 ng/ml; Duration of terbutaline serum level at clinical use ([5]; normally obtained at clinical use of terbutaline, 2 ng/ml): about 8 hours; Slope of the line of increase in heart rate vs. logarithm of corresponding serum conc. (heart rate in dogs): 1.04; Correlation coefficient (increase in heart rate vs. logarithm of serum conc.) (heart rate in dogs): 0.9598; ED50 [6]: 0.4 mg/kg and 1.5 µmol/kg

Question: What does the source list for `CN(C)C(=O)Oc1cc(OC(=O)N(C)C)cc(C(O)CNC(C)(C)C)c1` (stereo not shown) [I, 1-[bis-(3',5'-N,N-dimethylcarbamoyloxy)phenyl]-2-N-tert.butylaminoethanol hydrochloride]?
Answer: Duration of terbutaline serum level of 2 ng/ml or more ([1]; p.o., dogs): ≥ 16 h; Duration of clinically useful serum level relative to terbutaline ([1]; p.o., dogs, terbutaline 2 ng/ml serum or higher): at least twice as long; Emax [2]: 0%; Chronotropic or inotropic effect, in words ([3]; isolated guinea-pig auricles): did not show any chronotropic or inotropic effect; Potentiating or inhibiting effect on the chronotropic and inotropic effect of terbutaline ([3]; test compound in same concentration as terbutaline): No potentiating or inhibiting effect; Potentiating or inhibiting effect of the test substance on the bronchodilating effect of terbutaline ([4]; 5 minutes pretreatment, hydrochloride): none and No potentiating or inhibiting activity; EC50 [4]: > 20000 nM; Bronchodilating effect (intrinsic), in words ([4]; isolated guinea-pig trachea, hydrochloride): did not produce any bronchodilating effect; also recorded: did not exert any intrinsic bronchodilating effect; Increase in heart rate relative to terbutaline, in words (heart rate in dogs; hydrochloride): relatively much lower increase in heart rate than the reference compound terbutaline; also recorded: considerably reduced stimulating effect on the heart rate compared with the heart rate stimulating effect of terbutaline; Slope of the line of increase in heart rate vs. logarithm of corresponding serum conc. (heart rate in dogs): 0.63; Correlation coefficient (increase in heart rate vs. logarithm of serum conc.) (heart rate in dogs): 0.9324; ED50 [6]: 2.7 mg/kg and 6.7 µmol/kg; Bronchospasmolytic potency relative to terbutaline ([6]; on molar basis, in words): less potent than the reference substance terbutaline

Question: With `CC(C)(C)NCC(O)c1ccc(O)c(CO)c1` (stereo not drawn) [salbutamol, α-(tert.)-butylaminomethyl-4-hydroxy-m-xylene-α-diolsulphate] as the compound, how does the “Duration of bronchospasmolytic activity, in words” value [5] read?
Answer: The value was “about equal to the duration of terbutaline”.

Question: For `Cc1ccc(C(=O)Oc2ccc(C(O)CNC(C)(C)C)cc2OC(=O)c2ccc(C)cc2)cc1` (stereo not shown) [bitolterol], which “Duration of bronchospasmolytic activity, in words” value [5] is on record?
Answer: The value was “comparable with that of salbutamol”.
